This is an account of results in PMC6737539 (Journal of medicinal chemistry, 2019).

Structures are written as SMILES. Like-named read-outs stand apart in the source and are kept apart here.

Data set [1] in a line: Liver microsomal metabolic stability, rat. The following applies: 10 μM, 30 min. It is filed as in vitro ADME.
For another data set, the system named is serum RBP4. The following applies: mice; cited from earlier work.
Data set [2] is described as follows: Liver microsomal metabolic stability, human. It is filed as in vitro ADME. As to conditions: 10 μM, 30 min.
For a further data set, the target named is RBP4 (Homo sapiens, UniProt P02753). The data set can be described thus: RBP4 scintillation proximity assay. It is filed as binding. As to conditions: for binding to RBP4 (competition binding): purified human RBP4, 10 nM 3H-retinol radioligand.
A short description of data set [3]: Liver microsomal metabolic stability, mouse. As to conditions: 10 μM, 30 min. It is filed as in vitro ADME.
Setting [4] is: lipophilic ligand efficiency: RBP4 SPA pIC50 − cLog P.

Regarding `O=C(O)c1ccccc1NC(=O)N1CCC(c2ccccc2C(F)(F)F)CC1` [Compound 3, reference compound], the “Microsomal Stability (% remaining) RLM” value in data set [1] is 85 % remaining.
In the case of `Cc1cc(C(=O)O)nc(N2C[C@H]3CC(c4ccccc4C(F)(F)F)C[C@H]3C2)n1` (stereo partly shown) [Compound 5], in the data set with serum RBP4, the “serum RBP4 lowering” value is given as 90%.
For the compound `Cn1nc(C(=O)N2CCC(c3ccccc3C(F)(F)F)CC2)c2ccccc21` [Compound 12, (1-Methyl-1H-indazol-3-yl)(4-(2-(trifluoromethyl)phenyl)-piperidin-1-yl)methanone], the “Microsomal Stability (% remaining) HLM” value in data set [2] is on record as 0.7 % remaining. For the same compound, on RBP4 (setting [4]), the LLE is 4.56. For the same compound, in data set [1], the “Microsomal Stability (% remaining) RLM” value stood at 0.0 % remaining. For the same compound, the “Microsomal Stability (% remaining) MLM” value in data set [3] stood at 0.2 % remaining.
`COc1ccc2[nH]nc(C(=O)N3CCC(c4ccccc4C(F)(F)F)CC3)c2c1` [Compound 17, (5-Methoxy-1H-indazol-3-yl)(4-(2-(trifluoromethyl)phenyl)-piperidin-1-yl)methanone] registered an LLE at RBP4 (setting [4]) of 3.01.
`CC(C)n1nc(C(=O)N2CCC(c3ccccc3C(F)(F)F)CC2)c2ccc(F)cc21` [Compound 20, (6-Fluoro-1-isopropyl-1H-indazol-3-yl)(4-(2-(trifluoromethyl)-phenyl)piperidin-1-yl)methanone] yielded an LLE at RBP4 of 2.03.
The compound `N#Cc1ccc2nnc(C(=O)N3CCC(c4c(F)cccc4C(F)(F)F)CC3)n2c1` [Compound 64, 3-(4-(2-Fluoro-6-(trifluoromethyl)phenyl)piperidine-1-carbonyl)-[1,2,4]triazolo[4,3-a]pyridine-6-carbonitrile] displayed an LLE at RBP4 (setting [4]) of 5.89.
As to `CC/C=C\C/C=C\C/C=C\C/C=C\C/C=C\C/C=C\CCC(=O)O` [docosahexaenoic acid, reference compound], the “binding to RBP4 (competition binding)” value on RBP4 is “weak RBP4 ligands”.
Same read-out and setting: the same measure for `CCCCC/C=C\C/C=C\CCCCCCCC(=O)O` [linoleic acid, reference compound]: “weak RBP4 ligands”.
The same measure, in the same setting: the entry for `CCCCCCCC/C=C\CCCCCCCC(=O)O` [oleic acid, reference compound] is “weak RBP4 ligands”.
Same read-out and setting: the entry for `CCCCCCCCCCCCCCCC(=O)O` [palmitic acid, reference compound] is “weak RBP4 ligands”.
